Positions of bridges follow the written chain, without caps; N, C: chain ends. No end group written: not given here.

The test system of data set [1] is mouse melanoma B16 cell line. Description: Metastasis test in vivo, liver metastatic focuses after intrasplenic B16 inoculation. The arrangement: species or system mice C57BL/6J. Particulars: killed day 11 (control 32±7). How it is done: In order to study the effect of the PCI on the metastatic capacity of the tumoral cells, mouse melanoma B16 cell line are used used because this line is singeneic with the mice. These cells, intrasplenically inoculated in singeneic mice, after 7 days, start to develop metastasis in the liver of the mouse. The following material was employed:
A control group: consisting of 5 mice to which 300,000 cells dissolved in 0.1 mL of alphaMEM-Hepes were inoculated. The mice, previously anaesthetized with nembutal, were inoculated by way of intrasplenic injection, by means of a little incision and subsequently closed with stitches. These mice were killed 11 days after injection of the tumoral cells by cervical dislocation.
Treatment 1: again, 5 mice were inoculated in the same way as those of the control group. Six days after the injection, a daily treatment with 0.1 mg/mL of PCI in 0.1, mL of PBS by way of intraperitoneal injection was started. The animals were also killed on the eleventh day after the injection.
Treatment 2: in this case, the cells inoculated to the mice (also 5 of them) were previously treated in vitro for 4 days in a concentration of 0.1 mg/mL of PCI. […]
Once killed, their liver was extracted. […] Afterwards, the sections were dyed with hematoxyline-eosine and the number of metastatic focuses was counted.

The subject of data set [2] is human pancreatic adenocarcinoma cell line Capan-1. The data set can be described thus: Cytotoxicity test with BCECF-AM and propydium iodure. Particulars: PCI 10-75 μg/mL, 24 h. It counts as cell-based. An excerpt: The cytotoxicity test is based on the use of two fluorophores, BCECF-AM and propydium iodure. The first one is employed to mark the viable cells because it quickly penetrates into the cellular cytoplasm where it is fragmented by the action of the esterases, becoming a fluorescent molecule. These esterases only being active when the cells are alive. Propydium iodine is a derivative of the phenanthrene which specifically joins the polynucleotide structure of nucleic acids intercalating between their pairs of bases. Due to its ionic structure it cannot penetrate into the live cells but it can do so into the dead ones, labeling DNA and RNA. […]
1. The absorbancy of the plate was read using cytofluor. The cytofluor is a fluorometer especially designed for reading the fluorescence of the cells; it is controlled by computer which makes it possible to employ various filter combinations of excitation-emission at the same time. […] These filters allow us to detect the fluorescence of the two reagents employed for the cytotoxicity test such as BCECF-AM and propydium iodide. This first reading corresponds to the self-fluorescence of the cells, which it will later be deducted from the final value of the fluorescence. […]
3. Afterwards, the absorbancy of the plate was read. This measure corresponds to the total fluorescence.
4. […] Thus, we eliminated the fluorescence that had not been incorporated by the cells. […]

Data set [3] has as its system ribonuclease secreted by Capan-1. The data set can be described thus: Ribonuclease secretion and glycosylation pattern (zymogram). It counts as cell-based, human. As to conditions: PCI 5 μg/mL, pre and postadhesion; DMEM + BMS 10%. From the text: To verify whether the PCI when affecting cell growth may provoke metabolic changes too, we analysed the changes in a secreted protein, ribonuclease, in the human pancreatic adenocarcinoma cell line Capan-1. Apart from the mentioned material required for cell culture, this analysis was based on the detection of ribonuclease activity by means of the electrophoretic analysis in activity gels (zymograms) (Bravo, J. et al (1994) Anal Biochem., 219: 82-86).
With this aim in mind, the culture medium of the proliferation tests of Section 4.B.1 was taken. Thus, a culture medium of control cells was provided for cells treated with PCI from the beginning (preanchorage) and for cells treated once they had adhered to the culture surface (postanchorage). Given the fact that the FBS contains bovine ribonuclease which would interfere in our research, these cells grew in DMEM supplemented with BMS at 10%. The procedure was as follows: […]
At the moment of the analyses, the media were unfrozen in order to have an aliquot of each sample. The concentration of total protein was determined by means of the Bradford method (Bradford, M. M. (1976) Anal. Biochem., 72: 248-254). […]
The analysis of ribonuclease secretion was done with Capan-1. […] Using the electrophoretic analysis of ribonuclease activity, the pattern of glycosylation of this protein could be observed and a certain quantification could be made.

Regarding “PCI: potato carboxypeptidase inhibitor, isoform IIa, obtained by recombinant DNA techniques in E. coli (SEQ ID NO.2) (EQHADPICNKPCKTHDDCSGAWFCQACWNSARTCGPYVG; disulfide 12-27, 18-34, 8-24)”, the “number of metastatic focuses in liver” value in data set [1] (treatment 1: daily intraperitoneal 0.1 mg/mL of PCI in 0.1 mL PBS from day 6) is on record as 27 focuses. For the same substance, the “number of metastatic focuses in liver” value in data set [1] (treatment 2: cells treated in vitro 4 days with 0.1 mg/mL of PCI before inoculation) was 4±1 focuses. Further, in data set [2], the “cell death (propydium iodure fluorescence)” value is given as “No significant difference in relation to the control group” and the “viability of the cells (BCECF-AM fluorescence)” value is “no decrease of viability being observed”. Besides, the “secretion and glycosylation of ribonuclease compared to the control group” value in data set [3] is reported as “higher secretion of ribonuclease with a higher degree of glycosylation”.

The values above are taken from patent US6379959B1, “Metalocarboxypeptidase inhibitors and derived molecules used as antitumor agents” (Universitat Autonoma de Barcelona, priority 1996, dated 2002).
